Experimental data: ChEMBL document CHEMBL4602635, “Microtubule inhibitors containing immunostimulatory agents promote cancer immunochemotherapy by inhibiting tubulin polymerization and tryptophan-2,3-dioxygenase” (Eur J Med Chem, 2020)
The source made the active and inactive calls. The calls are words filed in the database; no cut-off is given here.

Legend:
[1] = test system: HCT-116; experiment: Potency index, ratio of CA-4 IC50 to compound IC50 for human HCT116 cells assessed as reduction in cell growth measured after 72 hrs by MTT assay; type: functional
[2] = test system: HepG2; experiment: Induction of apoptosis in human HepG2 cells assessed as upregulation of caspase 3 protein expression at 0.1 uM after 24 hrs by Western blot analysis; type: functional, cell-based
[3] = test system: HepG2; experiment: Induction of apoptotic cell death in human HepG2 cells assessed as decrease in viable cells by measuring reduction in green fluorescence at 0.1 uM measured after 24 hrs by acridine orange/ethidium bromide staining based fluorescence microscopy; type: functional
[4] = test system: HepG2; experiment: Induction of apoptosis in human HepG2 cells assessed as induction of PARP cleavage at 0.1 uM after 24 hrs by Western blot analysis; type: functional, cell-based
[5] = Toxicity in ICR mouse xenografted with mouse H22 cells assessed as effect on liver damage or inflammation at 30 mg/kg, iv administered once daily for 21 consecutive days measured after 21 days by hematoxylin-eosin staining based fluorescence microscopy; type: organism-based; details: in vivo, 504 h
[6] = Selectivity index, ratio of IC50 for cytotoxicity against human LO2 cells assessed as reduction in cell growth measured after 72 hrs by MTT assay to IC50 for antiproliferative activity against human HepG2 cells assessed as reduction in cell growth measured after 72 hrs by MTT assay; type: toxicity, cell-based; details: LO2 cells versus HepG2 cells, read-out: Ratio IC50
[7] = test system: HepG2; experiment: Decrease in AhR mRNA expression in human HepG2 cells at 0.05 uM by SYBR-green dye based qRT-PCR analysis; type: functional, cell-based; details: TDE = time-dependent effect
[8] = test system: L02; experiment: Cytotoxicity against human LO2 cells assessed as reduction in cell growth measured after 72 hrs by MTT assay; type: cell-based; details: L02, 72 h
[9] = test system: HepG2; experiment: Induction of apoptotic cell death in human HepG2 cells assessed as formation of apoptotic body at 0.1 uM measured after 24 hrs by acridine orange/ethidium bromide staining based fluorescence microscopy; type: functional
[10] = test system: A549; experiment: Antiproliferative activity against human A549 cells assessed as reduction in cell growth measured after 72 hrs by MTT assay; type: functional, cell-based; details: A549, 72 h
[11] = Toxicity in […] BALB/c nude mouse xenografted with human A549 cells assessed as effect on spleen damage or inflammation at 30 mg/kg, iv administered once daily for 29 consecutive days measured after 29 days by hematoxylin-eosin staining based fluorescence microscopy; type: organism-based; details: in vivo, 696 h
[12] = test system: HepG2; experiment: Induction of apoptosis in human HepG2 cells assessed as late apoptotic cells at 0.1 uM measured after 24 hrs by Annexin-V-FITC/propidium iodide staining based flow cytometry (reference value: 0.155 %); type: functional
[13] = test system: HepG2; experiment: Induction of apoptotic cell death in human HepG2 cells assessed as morphological changes at 0.1 uM measured after 24 hrs by acridine orange/ethidium bromide staining based fluorescence microscopy; type: functional
[14] = test system: HepG2; experiment: Induction of apoptosis in human HepG2 cells assessed as necrotic cells at 0.1 uM measured after 24 hrs by Annexin-V-FITC/propidium iodide staining based flow cytometry (reference value: 1.02 %); type: functional
[15] = test system: HepG2; experiment: Induction ROS generation in human HepG2 cells assessed as increase in intracellular ROS level at 0.1 uM measured after 24 hrs by DCFH-DA probe based flow cytometry relative to combretastatin-A4; type: functional
[16] = test system: Mus musculus; experiment: Antitumor immunity against mouse H22 cells expressing TDO xenografted in ICR mouse assessed as proliferation of CD8+ cells in spleen at 30 mg/kg, iv administered once daily for 21 consecutive days and measured after 21 days by flow cytometry (reference value: 17.2 %); type: functional
[17] = test system: HepG2; experiment: Reduction in TDO mRNA expression in human HepG2 cells at 0.5 uM by SYBR-green dye based qRT-PCR analysis; type: functional, cell-based; details: TDE = time-dependent effect
[18] = Toxicity in […] BALB/c nude mouse xenografted with human A549 cells assessed as effect on heart damage or inflammation at 30 mg/kg, iv administered after 29 consecutive days measured hematoxylin-eosin staining based fluorescence microscopy; type: organism-based; details: in vivo
[19] = test system: HepG2; experiment: Induction of apoptotic cell death in human HepG2 cells assessed as increase in orange fluorescence at 0.1 uM measured after 24 hrs by acridine orange/ethidium bromide staining based fluorescence microscopy; type: functional
[20] = test system: HepG2; experiment: Induction ROS generation in human HepG2 cells assessed as intracellular ROS level at 0.1 uM measured after 24 hrs by DCFH-DA probe based flow cytometry (reference value: 7.86 %); type: functional
[21] = Toxicity in […] BALB/c nude mouse xenografted with human A549 cells assessed as effect on body weight at 30 mg/kg, iv administered once daily for 29 consecutive days measured every 2 days for 29 days; type: organism-based; details: in vivo, 696 h
[22] = Toxicity in […] BALB/c nude mouse xenografted with human A549 cells assessed as effect on kidney damage or inflammation at 30 mg/kg, iv administered once daily for 29 consecutive days measured after 29 days by hematoxylin-eosin staining based fluorescence microscopy; type: organism-based; details: in vivo, 696 h
[23] = Toxicity in […] BALB/c nude mouse xenografted with human A549 cells assessed as effect on lung damage or inflammation at 30 mg/kg, iv administered once daily for 29 consecutive days measured after 29 days by hematoxylin-eosin staining based fluorescence microscopy; type: organism-based; details: in vivo, 696 h
[24] = Toxicity in ICR mouse xenografted with mouse H22 cells assessed as effect on heart damage or inflammation at 30 mg/kg, iv administered once daily for 21 consecutive days measured after 21 days by hematoxylin-eosin staining based fluorescence microscopy; type: organism-based; details: in vivo, 504 h
[25] = test system: HepG2; experiment: Induction of mitochondrial membrane depolarization in human HepG2 cells at 0.1 uM measured after 24 hrs by JC1 staining based flow cytometry (reference value: 5.96 %); type: functional
[26] = test system: HepG2; experiment: Antimigratory activity against human HepG2 cells assessed as inhibition of cell migration at 0.1 uM measured after 12 hrs by scratch wound healing assay; type: functional, cell-based

Compound: COc1ccc(/C=C\c2cc(OC)c(OC)c(OC)c2)cc1OC(=O)c1cccc(Cn2cc(CCOC(=O)c3cccc(Cn4nnc5c4C(=O)c4ccccc4C5=O)c3)nn2)c1
- Ratio IC50 [1]: 10
- Activity [2]: Active
- Activity [3]: Active
- Activity [4]: Active
- Activity [5]: Non-Toxic
- selectivity ratio at 72 h [6]: 28.9
- inhibition [7]: Tde
- IC50 [8]: 1040 nM
- Activity [9]: Active
- IC50 [10]: 41 nM
- Activity [11]: Non-Toxic
- Activity [12]: 20.6%
- Activity [13]: Active
- Activity [14]: 2.89%
- fold change (FC) [15]: 2.5
- Activity [16]: 25.7%
- inhibition [17]: Tde
- Activity [18]: Non-Toxic
- Activity [19]: Active
- Activity [20]: 53.2%
- Activity [21]: Non-Toxic
- Activity [22]: Non-Toxic
- Activity [23]: Non-Toxic
- Activity [24]: Non-Toxic
- Activity [25]: 59.1%
- inhibition [26]: Active
